Some test systems named below: HCC 2998; HCT-116; HCT-15; HOP-62; HT-29; LOX IMVI; NCI-H460; NCI-H522; RPMI-8226; SF-268; SK-MEL-2; SK-MEL-5; SK-OV-3; SNB-19; TK-10; U-251; UO-31; MDA-MB-435; NCI/ADR-RES.
What all share (test): NCI anticancer screen, dose series, 48 h

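96-well plates; 48 h exposure; 5 concentrations. Endpoints by linear interpolation between flanking doses. Not reached: highest tested concentration assigned. GI50 is the concentration that inhibits growth by half.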 Active and inactive are the calls of the source. No stated cut-off is given here; in the data, active = GI50 up to about 1.1 µM and inactive = higher.

Regarding `CC(N)C(=O)c1ccc(O)cc1` (stereo unspecified), the GI50 with HCC 2998 was > 100 µM (inactive); in the assay with HCT-116, > 100 µM (inactive); with HCT-15, over 100 µM; in the assay on HOP-62, > 100 µM (inactive); in the assay with HT-29, > 100 µM (inactive); in the assay on LOX IMVI it was > 100 µM (inactive). For the same compound, the GI50 in the assay on NCI-H460, in the assay on NCI-H522, in the assay on RPMI-8226, with SF-268, with SK-MEL-2 and in the assay with SK-MEL-5 was > 100 µM (inactive) throughout. Also, the GI50 in the assay with SK-OV-3, with SNB-19, in the assay with TK-10, with U-251 and with UO-31 was > 100 µM (inactive) throughout.
Turning to `Cc1cc(C)c2c(c1)CC1(Cc3c(C)cc(C)cc3C1=O)C2=O` (stereo unspecified), the GI50 in the assay on HCC 2998 was > 100 µM (inactive); in the assay with HCT-15, over 100 µM; in the assay with LOX IMVI, > 100 µM (inactive); in the assay on MDA-MB-435, > 100 µM (inactive); in the assay with NCI-H460, > 100 µM (inactive); in the assay with NCI-H522 it was > 100 µM (inactive). The GI50 in the assay on NCI/ADR-RES, in the assay with RPMI-8226, with SF-268, with SK-MEL-2, in the assay with SK-MEL-5 and in the assay on SNB-19 was > 100 µM (inactive) each time. The GI50 with TK-10, in the assay on U-251 and in the assay on UO-31 was > 100 µM (inactive) each time.
As to `O=C(c1cccc2ccccc12)C1(Br)S(=O)(=O)OCCOS1(=O)=O`, the GI50 in the assay with HCC 2998 was > 100 µM (inactive); with HCT-116 it was > 100 µM (inactive); in the assay on HCT-15, over 100 µM; in the assay with HOP-62 it was > 100 µM (inactive); in the assay on HT-29, > 100 µM (inactive); with LOX IMVI it was > 100 µM (inactive). In addition, the GI50 with MDA-MB-435, with NCI-H460, in the assay on NCI/ADR-RES, in the assay on RPMI-8226, with SK-MEL-2 and in the assay on SK-MEL-5 was > 100 µM (inactive) throughout. The GI50 in the assay with SNB-19, with TK-10, in the assay with U-251 and in the assay on UO-31 was > 100 µM (inactive) each time.
In the case of `O=c1c2c3c(sc2nc2n1sc1nc4sc5c(c4c(=O)n12)CCCC5)CCCC3`, the GI50 in the assay on HCC 2998 is 36.1 µM (inactive); in the assay on HCT-116 it was 35.7 µM (inactive); with HCT-15, 62.8 µM; in the assay on HOP-62, > 100 µM (inactive); in the assay with HT-29, 41.2 µM (inactive); in the assay with LOX IMVI, > 79.4 µM (inactive). Besides, the GI50 in the assay on MDA-MB-435 is 51.8 µM (inactive); with NCI-H460, > 100 µM (inactive); with NCI-H522, 10.8 µM (inactive); in the assay with NCI/ADR-RES it was 32.1 µM (inactive); with RPMI-8226 it was 22.2 µM (inactive); in the assay on SF-268 it was 42 µM (inactive). In addition, the GI50 in the assay with SK-MEL-2 was > 100 µM (inactive); in the assay on SK-MEL-5, > 100 µM (inactive); in the assay on SK-OV-3, 99.1 µM (inactive); in the assay with SNB-19 it was 92.9 µM (inactive); in the assay on TK-10, 89.1 µM (inactive); in the assay on U-251, > 83 µM (inactive). In addition, the GI50 in the assay on UO-31 is 18.5 µM (inactive).
`CN(C)CCNC(=O)c1cc(NC(=O)c2cc(NC(=O)CC/C=C3/[C@@H]4CC[C@H]3N=N4)cn2C)cn1C`: the GI50 with HCC 2998 was > 100 µM (inactive); with HCT-116, > 100 µM (inactive); in the assay on HCT-15 it was over 100 µM; in the assay on HOP-62, > 100 µM (inactive); in the assay with HT-29, > 100 µM (inactive); in the assay on LOX IMVI, > 100 µM (inactive). The GI50 in the assay on MDA-MB-435, in the assay with NCI-H460, in the assay with NCI-H522, in the assay with NCI/ADR-RES, with RPMI-8226 and with SF-268 was > 100 µM (inactive) in each case. Further, the GI50 in the assay on SK-MEL-2, with SK-MEL-5, with SNB-19, in the assay with TK-10, with U-251 and with UO-31 was > 100 µM (inactive) throughout.
Regarding `CCOP(=O)(Cc1nc(C#N)c(N)o1)OCC`, the GI50 was > 100 µM (inactive) in the assay with HCC 2998; > 100 µM (inactive) in the assay on HCT-116; over 100 µM in the assay on HCT-15; > 100 µM (inactive) in the assay on HOP-62; > 100 µM (inactive) in the assay with HT-29; > 100 µM (inactive) in the assay on LOX IMVI. Also, the GI50 in the assay on MDA-MB-435, in the assay on NCI-H460, in the assay with NCI-H522, in the assay with RPMI-8226, in the assay with SF-268 and with SK-MEL-2 was > 100 µM (inactive) each time. Moreover, the GI50 with SK-MEL-5, in the assay with SK-OV-3, in the assay with SNB-19, in the assay on TK-10 and in the assay with U-251 was > 100 µM (inactive) each time.
On to `CN1CCN(C)C12C=CC=CC21CC1`, for which the GI50 is > 100 µM (inactive) with HCC 2998; > 100 µM (inactive) in the assay with HCT-116; over 100 µM in the assay on HCT-15; > 100 µM (inactive) in the assay on HOP-62; > 100 µM (inactive) with HT-29; > 100 µM (inactive) in the assay on LOX IMVI. Also, the GI50 in the assay on NCI-H460, with NCI-H522, with RPMI-8226, in the assay on SF-268, in the assay on SK-MEL-2 and in the assay with SK-MEL-5 was > 100 µM (inactive) throughout. The GI50 in the assay with SK-OV-3, in the assay with SNB-19, in the assay on TK-10, in the assay with U-251 and in the assay on UO-31 was > 100 µM (inactive) throughout.
As to `CN(C)c1nc(N(C)C)nc(N(C)CN(C)c2nc(N(C)C)nc(N(C)C)n2)n1`, the GI50 was > 100 µM (inactive) in the assay with HCC 2998; > 100 µM (inactive) in the assay with HCT-116; over 100 µM in the assay with HCT-15; > 100 µM (inactive) with HOP-62; > 100 µM (inactive) in the assay on HT-29; > 100 µM (inactive) in the assay with LOX IMVI. For the same compound, the GI50 was > 100 µM (inactive) in the assay with NCI-H460; 76.9 µM (inactive) in the assay with NCI-H522; > 100 µM (inactive) with RPMI-8226; > 100 µM (inactive) in the assay on SF-268; > 100 µM (inactive) in the assay on SK-MEL-2; > 100 µM (inactive) in the assay on SK-MEL-5. Further, the GI50 with SK-OV-3, in the assay with SNB-19, in the assay on TK-10, in the assay with U-251 and in the assay with UO-31 was > 100 µM (inactive) in each case.
For `O[C@]12CCCC[C@H]1CCC2`, the GI50 was > 100 µM (inactive) with HCC 2998; > 100 µM (inactive) with HCT-116; over 100 µM in the assay on HCT-15; > 100 µM (inactive) in the assay with HOP-62; > 100 µM (inactive) with HT-29; > 100 µM (inactive) in the assay with LOX IMVI. For the same compound, the GI50 in the assay on NCI-H460, with NCI-H522, in the assay on RPMI-8226, in the assay with SF-268, in the assay on SK-MEL-2 and in the assay with SK-MEL-5 was > 100 µM (inactive) in each case. The GI50 with SK-OV-3, with SNB-19, in the assay with TK-10, in the assay on U-251 and in the assay with UO-31 was > 100 µM (inactive) throughout.
As to `CC1=C(N(C)C)C(=O)c2nc3n(c2C1=O)CCC3OC(N)=O` (stereo unspecified), the GI50 is 18.2 µM (inactive) with HCC 2998; 15.4 µM (inactive) in the assay on HCT-116; 14.5 µM with HCT-15; 17.6 µM (inactive) in the assay on HOP-62; 19.7 µM (inactive) in the assay on HT-29; 10.9 µM (inactive) in the assay on LOX IMVI. The GI50 in the assay with NCI-H460 was 15.6 µM (inactive); in the assay on NCI-H522, 15.2 µM (inactive); in the assay on RPMI-8226, 16.9 µM (inactive); with SF-268, 20.1 µM (inactive); with SK-MEL-2 it was 15.6 µM (inactive); in the assay on SK-MEL-5, 11.5 µM (inactive). The GI50 in the assay on SK-OV-3 is 15.2 µM (inactive); in the assay with SNB-19 it was 17.5 µM (inactive); in the assay with TK-10 it was 18.2 µM (inactive); in the assay with U-251, 23.2 µM (inactive); in the assay on UO-31 it was 17.3 µM (inactive).
On to `Cc1ccc2c(O)cc(-c3cccc(Cl)c3)nc2n1`, for which the GI50 with HCC 2998 was 0.12 µM (active); in the assay on HCT-116, < 0.016 µM (active); in the assay on HCT-15, under 0.0192 µM; in the assay on HOP-62, 0.0305 µM (active); with HT-29 it was < 0.0179 µM (active); with LOX IMVI it was 0.024 µM (active). The GI50 in the assay on MDA-MB-435 is < 0.01 µM (active); with NCI-H460 it was < 0.0204 µM (active); in the assay with NCI-H522 it was < 0.01 µM (active); with NCI/ADR-RES, 0.0411 µM (active); in the assay with RPMI-8226, < 0.0212 µM (active); in the assay on SF-268, 0.59 µM (active). Also, the GI50 with SK-MEL-2 was 0.0324 µM (active); with SK-MEL-5 it was < 0.0177 µM (active); in the assay on SK-OV-3 it was 0.0411 µM (active); in the assay with SNB-19, 0.0705 µM (active); in the assay on TK-10, > 59.8 µM (inactive); with U-251, 0.0308 µM (active). Further, in the assay with UO-31, the GI50 was 0.902 µM (active).
Consider `Cc1c2ccncc2c(C)c2c1[nH]c1ccc(Oc3ccccc3)cc12`, for which the GI50 in the assay on HCC 2998 is 1.94 µM (inactive); with HCT-116, 2.56 µM (inactive); in the assay on HCT-15 it was 1.44 µM; with HOP-62, 1.96 µM (inactive); in the assay on HT-29 it was 1.79 µM (inactive); in the assay with LOX IMVI, 1.93 µM (inactive). The GI50 in the assay with NCI-H460 is 1.95 µM (inactive); with NCI-H522, 2.37 µM (inactive); in the assay on RPMI-8226, 1.88 µM (inactive); in the assay on SF-268, 3.39 µM (inactive); in the assay with SK-MEL-2, 1.66 µM (inactive); with SK-MEL-5, 2.97 µM (inactive). The GI50 was 6.46 µM (inactive) in the assay on SK-OV-3; 10.6 µM (inactive) in the assay with SNB-19; 8.18 µM (inactive) with TK-10; 1.67 µM (inactive) with U-251; 11 µM (inactive) in the assay on UO-31.

The record behind these values is ChEMBL document CHEMBL1201862, “PubChem BioAssay data set” (2004).
